Assay results published in publication PMC12172450, “Moonlighting activity of threonine synthase in cyanobacterial cell death” (mSystems, 2025).

Assays:
[1] = biological target: T1, ThrC (threonine synthase; ThrC-His6) (Microcystis aeruginosa, UniProt A0AB33BYK2); assay: alpha-ketobutyrate formation (semicarbazide / […],4-DNPH), threonine deaminase activity, sigmoidal fit; assay type: biochemical; conditions: 50 mM PIPES pH 8.0, 100 mM KCl, 0.1 mM EDTA, 1 mM DTT, PLP, 25 °C; sigmoidal kinetics
T1 construct: gene BH695_2536; full-length thrC (1,304 bp), N-terminal His6 tag from pET-28b(+), E. coli BL21(DE3), Ni-NTA purified; tag cleavage not mentioned
T1 sequence (A0AB33BYK2 entry or part of it): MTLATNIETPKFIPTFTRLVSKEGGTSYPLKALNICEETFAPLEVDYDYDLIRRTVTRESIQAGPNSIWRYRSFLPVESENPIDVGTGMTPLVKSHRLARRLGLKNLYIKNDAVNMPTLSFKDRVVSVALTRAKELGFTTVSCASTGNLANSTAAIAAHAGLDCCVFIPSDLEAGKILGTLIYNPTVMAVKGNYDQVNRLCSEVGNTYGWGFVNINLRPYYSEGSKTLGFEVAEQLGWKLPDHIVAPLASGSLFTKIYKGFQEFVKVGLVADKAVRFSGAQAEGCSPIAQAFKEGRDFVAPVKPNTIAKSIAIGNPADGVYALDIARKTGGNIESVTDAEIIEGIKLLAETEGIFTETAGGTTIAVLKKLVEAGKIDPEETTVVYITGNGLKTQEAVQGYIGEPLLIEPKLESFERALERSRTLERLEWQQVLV

[2] = biological target: T1, ThrC (threonine synthase; ThrC-His6); assay: in vitro threonine deaminase assay, inhibition; assay type: biochemical; conditions: threonine as substrate; concentration-dependent inhibition
[3] = biological target: T1, ThrC (threonine synthase; ThrC-His6); assay: yellow colour of purified enzyme; PLP-dependent threonine deamination spectra; assay type: binding; conditions: threonine as substrate; 50 mM PIPES pH 8.0

| Structure (SMILES) | inhibition [2] | also measured |
| --- | --- | --- |
| C[C@@H](O)[C@H](N)C(=O)O [threonine] |  | K0.5 [1]: The sigmoidal kinetics of ThrC as a threonine deaminase were analyzed in the presence of threonine |
| C[C@H](N)C(=O)O [alanine] | alanine and isoleucine, also exhibited concentration-dependent inhibitory activity against aKB-generating deaminases |  |
| CC[C@H](C)[C@H](N)C(=O)O [isoleucine] | alanine and isoleucine, also exhibited concentration-dependent inhibitory activity against aKB-generating deaminases |  |
| Cc1ncc(COP(=O)(O)O)c(C=O)c1O [PLP] |  | yellow colour of purified enzyme; PLP-dependent threonine deamination spectra [3]: threonine synthase could utilize PLP as a catalyst to degrade threonine into keto acids |
